Results: PubChem BioAssay AID192 (DTP/NCI, 2004)
Where “and” joins values, the source holds several entries; their conditions need not be identical. Equal entries are not always repeated. Inconclusive results and toxic doses are left out.

System: BDF1 mice, B16 melanoma ip, median survival T/C
Test: NCI In Vivo Anticancer Drug Screen. Data for tumor model B16 Melanoma (intraperitoneal) in B6D2F1 (BDF1) mice
Conditions: endpoint: median survival time, higher = longer survival
Protocol: The antitumor activity of compounds was measured in mice bearing transplantable tumors. Survival or tumor size were measured and the results are expressed as the measurement made in the treated group (T) divided by the measurement made in the vehicle treated control group (C). The tumor model used in this assay is B16 Melanoma (intraperitoneal) in B6D2F1 (BDF1) mice

[1] = dose: 100.0 mg/kg/injection, schedule: Q01DX009 (ip), vehicle: Klucel (hydroxypropylcellulose) (HPC)
[2] = dose: 12.5 mg/kg/injection, schedule: Q01DX009 (ip), vehicle: saline with Tween-80
[3] = dose: 50.0 mg/kg/injection, schedule: Q01DX009 (ip), vehicle: saline with Tween-80
[4] = dose: 100.0 mg/kg/injection, schedule: Q01DX009 (ip), vehicle: saline with Tween-80
[5] = dose: 6.25 mg/kg/injection, schedule: Q01DX009 (ip), vehicle: saline
[6] = dose: 12.5 mg/kg/injection, schedule: Q01DX009 (ip), vehicle: saline
[7] = dose: 25.0 mg/kg/injection, schedule: Q01DX009 (ip), vehicle: saline
[8] = dose: 50.0 mg/kg/injection, schedule: Q01DX009 (ip), vehicle: saline
[9] = dose: 200.0 mg/kg/injection, schedule: Q01DX009 (ip), vehicle: saline with Tween-80

## Cc1ccc(NC(=O)Nc2cccc(Cl)c2C)cc1C
dose: 25.0 mg/kg/injection, schedule: Q01DX009 (ip), vehicle: Klucel (hydroxypropylcellulose) (HPC)
  T/C: 98 % of control
dose: 50.0 mg/kg/injection, schedule: Q01DX009 (ip), vehicle: Klucel (hydroxypropylcellulose) (HPC)
  T/C: 86 % of control
[1]
  T/C: 92 % of control

## COc1cc(Cl)c(CC(=O)c2c[nH]c3ccccc23)cc1OC
dose: 6.25 mg/kg/injection, schedule: Q01DX009 (ip), vehicle: saline with Tween-80
  T/C: 100 % of control
[2]
  T/C: 89 % of control

## CCOC(=O)NC(C)(C)CC(C)(C)C
[1]
  T/C: 106 % of control

## COc1ccc(Nc2c3ccccc3nc3ccccc23)cc1
[2]
  T/C: 120 % of control

## CCC(=O)c1ccccc1NC(C)=O
[1]
  T/C: 102 % of control
dose: 200.0 mg/kg/injection, schedule: Q01DX009 (ip), vehicle: Klucel (hydroxypropylcellulose) (HPC)
  T/C: 98 % of control
dose: 400.0 mg/kg/injection, schedule: Q01DX009 (ip), vehicle: Klucel (hydroxypropylcellulose) (HPC)
  T/C: 97 % of control

## COC1C(O)C(C)OC(OC2C(Oc3cccc4c(O)c5c(=O)oc6ccc(C)c7c(=O)oc(c34)c5c67)OC(C)C(O)C2O)C1O (stereo not drawn)
dose: 16.0 mg/kg/injection, schedule: Q04DX003 (ip), vehicle: saline with Tween-80
  T/C: 107 % of control
dose: 25.0 mg/kg/injection, schedule: Q01DX009 (ip), vehicle: saline with Tween-80
  T/C: 183 % of control
dose: 32.0 mg/kg/injection, schedule: Q04DX003 (ip), vehicle: saline with Tween-80
  T/C: 101 % of control
dose: 50.0 mg/kg/injection, schedule: Q01DX009 (ip), vehicle: carboxymethylcellulose (CMC)
  T/C: 179 % of control
[3]
  T/C: 199 % of control
dose: 64.0 mg/kg/injection, schedule: Q04DX003 (ip), vehicle: saline with Tween-80
  T/C: 122 % of control
[1]
  T/C: 119 % of control
dose: 100.0 mg/kg/injection, schedule: Q01DX009 (ip), vehicle: carboxymethylcellulose (CMC)
  T/C: 206 % of control
[4]
  T/C: 185 % of control
dose: 128.0 mg/kg/injection, schedule: Q04DX003 (ip), vehicle: saline with Tween-80
  T/C: 119 % of control

## CC(C)NCC(=O)c1ccc(O)c(O)c1
dose: 5.0 mg/kg/injection, schedule: Q01DX009 (ip), vehicle: saline
  T/C: 115 % of control
dose: 10.0 mg/kg/injection, schedule: Q01DX009 (ip), vehicle: saline
  T/C: 114 % of control
dose: 20.0 mg/kg/injection, schedule: Q01DX009 (ip), vehicle: saline
  T/C: 116 % of control
dose: 40.0 mg/kg/injection, schedule: Q01DX009 (ip), vehicle: saline
  T/C: 110 % of control
dose: 100.0 mg/kg/injection, schedule: Q01DX009 (ip), vehicle: saline
  T/C: 113 % of control
dose: 100.0 mg/kg/injection, schedule: Q04DX003 (ip), vehicle: saline
  T/C: 108 % of control
dose: 200.0 mg/kg/injection, schedule: Q01DX009 (ip), vehicle: saline
  T/C: 106 % of control
dose: 200.0 mg/kg/injection, schedule: Q04DX003 (ip), vehicle: saline
  T/C: 106 % of control
dose: 400.0 mg/kg/injection, schedule: Q04DX003 (ip), vehicle: saline
  T/C: 97 % of control

## CCCCCCCCCCCC[N+]1(CCCCCCCCCCCC)CCCC(C)C1 (stereo not drawn)
dose: 0.09 mg/kg/injection, schedule: Q01DX009 (ip), vehicle: Klucel (hydroxypropylcellulose) (HPC)
  T/C: 95 % of control
dose: 0.18 mg/kg/injection, schedule: Q01DX009 (ip), vehicle: Klucel (hydroxypropylcellulose) (HPC)
  T/C: 97 % of control
dose: 0.37 mg/kg/injection, schedule: Q01DX009 (ip), vehicle: Klucel (hydroxypropylcellulose) (HPC)
  T/C: 93 % of control and 95 % of control

## CNCC(C)(C)c1ccccc1
[5]
  T/C: 102 % of control
[6]
  T/C: 90 % of control
[7]
  T/C: 102 % of control
[8]
  T/C: 100 % of control

## CN(C)CC/C=C1/c2ccccc2COc2ccccc21
dose: 3.12 mg/kg/injection, schedule: Q01DX009 (ip), vehicle: saline
  T/C: 112 % of control
[5]
  T/C: 102 % of control
[6]
  T/C: 105 % of control
[7]
  T/C: 112 % of control
[8]
  T/C: 105 % of control

## COc1cc([N+](=O)[O-])ccc1NC(=O)Nc1ccc(Cl)cc1
[3]
  T/C: 93 % of control
[4]
  T/C: 91 % of control
[9]
  T/C: 101 % of control

## COC(CCCl)c1ccc(Cl)cc1 (stereo not drawn)
[3]
  T/C: 102 % of control
[4]
  T/C: 97 % of control
[9]
  T/C: 87 % of control

## CCCCCCC1N(Cc2ccccc2N(C)C)CCCN1Cc1ccccc1N(C)C
dose: 75.0 mg/kg/injection, schedule: Q01DX009 (ip), vehicle: saline
  T/C: 97 % of control
